Assays:
[1] = MTT cytotoxicity test in LS174T cells; conditions: human
Method: (§1) A transiently transfected LS174T human colon adenocarcinoma cells were used for assessment of PXR transcriptional activity. […] The reporter plasmid was transiently transfected to LS174T cells by lipofection (FuGENE 6). Cells were incubated for 24 h with tested compounds and/or vehicle (DMSO; 0.1% v/v), in the presence or absence of RIF (10 µM; LS174T cells). After the treatments, cells were lysed and luciferase activity was measured. In parallel, cell viability was determined by conventional MTT test [MTT = 3-(4,5-dimethylthiazol-2-yl)-2,5-diphenyltetrazolium bromide]; briefly: After the treatment, culture medium was replaced with fresh one and 100 µL of MTT reagent (5 mg/mL PBS) was added. Three hours later, the medium was removed, and cells were washed with PBS and lysed for 5 min with 1 mL of DMSO containing 1% ammonia. The lysate was diluted 20 times with DMSO (+1% ammonia) and absorbance at 540 nm was measured against blank (DMSO+1% ammonia) (TECAN, Schoeller Instruments LLC). Results were normalized to the control value (i.e. 100×A sample/A control) and expressed as percentage of control.

[2] = tested on: CYP3A4 protein; experiment: CYP3A4 protein expression (Western blot) in HepG2 cells; format: cell-based, human; conditions: 48 h
Method: Human colon adenocarcinoma cells LS174T (ECACC No. 87060401) and human hepatocellular carcinoma cells HepG2 (ECACC No. 85011430) were purchased from ECACC and were cultured in as recommended by manufacturer. Primary human hepatocytes used in this study were obtained from two sources: (i) from multiorgan donors HH52 and […] (male; 71 years); the use of liver cells of donors HH52 and HH54 was approved by “Ethical committee at the Faculty Hospital Olomouc”, and it was in accordance with Transplantation law #285/2002 Sb; “Ethical committee at the Faculty Hospital Olomouc” waived the authors from obtaining consent from the next of kin, regarding human hepatocytes obtained from liver donors HH52 and HH54. (ii) long-term human hepatocytes in monolayer Batch HEP220770 (person) were purchased from Biopredic International (Biopredic International, Rennes, France). Cells were cultured in serum-free medium. Cultures were maintained at 37°C and 5% CO2 in a humidified incubator.
Total protein extracts were prepared as described elsewhere. SDS-PAGE gels (10%) were run according to the general procedure followed by the protein transfer onto PVDF membrane. The membrane was saturated with 5% non-fat dried milk. […] The density of bands was measured by densitometry.

[3] = tested on: CYP3A4/5; experiment: CYP3A4/5 catalytic activity, testosterone 6β-hydroxylation in human liver microsomes; conditions: pH 7.4, probe testosterone (6β-hydroxylation)
[4] = tested on: LS174T cells; experiment: MTT cytotoxicity test in LS174T cells; conditions: read-out: MTT test IC50 (cytotoxicity); LS174T cells; 24 h incubation
Method: as §1

[5] = biological target: T1, pregnane X receptor PXR (Homo sapiens, UniProt O75469); conditions: read-out: PXR antagonist IC50; transfected LS174T cells; 24 h; in the presence of RIF (10 µM)
T1 sequence (O75469 1-434): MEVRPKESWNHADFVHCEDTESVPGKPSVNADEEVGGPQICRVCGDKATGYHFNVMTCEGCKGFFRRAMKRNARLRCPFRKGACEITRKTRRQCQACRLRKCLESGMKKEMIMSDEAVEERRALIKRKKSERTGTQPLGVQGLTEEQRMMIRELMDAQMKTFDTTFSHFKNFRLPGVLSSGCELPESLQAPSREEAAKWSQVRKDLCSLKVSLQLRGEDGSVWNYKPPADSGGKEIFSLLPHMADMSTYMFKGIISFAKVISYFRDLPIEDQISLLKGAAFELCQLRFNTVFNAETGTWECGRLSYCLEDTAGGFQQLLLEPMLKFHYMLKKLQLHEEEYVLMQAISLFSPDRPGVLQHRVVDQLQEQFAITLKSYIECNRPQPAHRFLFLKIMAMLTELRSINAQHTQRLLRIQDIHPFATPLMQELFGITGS

| SMILES | IC50 at 24 h [1] [µM] | CYP3A4 protein induction (in words) [2] | activity at 10 µM [3] [%] | IC50 [4] [µM] | IC50 [5] [µM] |
| --- | --- | --- | --- | --- | --- |
| CC(=O)N1CCN(c2ccc(OCC3COC(Cn4ccnc4)(c4ccc(Cl)cc4Cl)O3)cc2)CC1 (racemic) [(rac)-KET, ketoconazole] | 50.3 | did not find convincing induction | 3 | – | – |
| CC(=O)N1CCN(c2ccc(OC[C@H]3CO[C@](Cn4ccnc4)(c4ccc(Cl)cc4Cl)O3)cc2)CC1 [(+)-KET, (2R,4S)-(+)-KET] | – | – | – | 52.7 | 41.2 |
| CC(=O)N1CCN(c2ccc(OC[C@@H]3CO[C@@](Cn4ccnc4)(c4ccc(Cl)cc4Cl)O3)cc2)CC1 [(−)-KET, (2S,4R)-(−)-KET] | 57.5 | – | – | – | – |

— paper PMC4208844 (PLoS ONE, 2014)
